According to ChEMBL document CHEMBL5257066, “The discovery of cyclic γ-AApeptides as the promising ligands targeting EP2” (Bioorg Med Chem Lett, 2023):
Calls of active or inactive are those of the source. The rule behind the calls is not given here.

Key:
[1] = target: T1, Prostaglandin E2 receptor EP2 subtype (Homo sapiens, UniProt P43116); assay: Binding affinity to human recombinant PTGER2 by high throughput fluorescence polarization assay
[2] = target: T1, Prostaglandin E2 receptor EP2 subtype; assay: Binding affinity to human recombinant PTGER2 assessed as dissociation constant by high throughput fluorescence polarization assay

T1 sequence (P43116 whole entry): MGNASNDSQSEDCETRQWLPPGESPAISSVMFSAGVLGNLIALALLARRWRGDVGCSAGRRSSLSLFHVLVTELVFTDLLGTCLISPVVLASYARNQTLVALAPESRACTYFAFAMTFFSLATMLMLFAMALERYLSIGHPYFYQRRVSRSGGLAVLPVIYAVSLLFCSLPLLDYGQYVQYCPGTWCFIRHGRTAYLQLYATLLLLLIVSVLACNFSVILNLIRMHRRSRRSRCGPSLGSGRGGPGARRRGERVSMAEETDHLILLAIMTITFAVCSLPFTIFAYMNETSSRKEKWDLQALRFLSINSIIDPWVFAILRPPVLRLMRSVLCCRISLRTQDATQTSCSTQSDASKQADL

Activity [1]	Kd [2] [µM]	SMILES
Active		CC(C)C[C@H]1CN(CC(N)=O)C(=O)CCSCc2ccc(cc2)C(=O)N[C@@H](CC(C)C)CN(C(=O)CC2CC2)CC(=O)N[C@@H](CCCCN)CN(C(=O)CCc2ccccc2)CC(=O)N[C@@H](Cc2ccccc2)CN(C(=O)CCC2CCCCC2)CC(=O)N1
Active		CC(C)C[C@H]1CN(CC(N)=O)C(=O)CCSCc2ccc(cc2)C(=O)N[C@@H](CCCCN)CN(C(=O)CCc2ccccc2)CC(=O)N[C@@H](CC(C)C)CN(C(=O)CCC2CCCCC2)CC(=O)N[C@@H](Cc2ccccc2)CN(C(=O)Cc2ccc3ccccc3c2)CC(=O)N1
	0.016	CC(C)C[C@H]1CN(CC(=O)NCCC(=O)N[C@@H](CCCCNC(=S)Nc2ccc(-c3c4ccc(=O)cc-4oc4cc(O)ccc34)c(C(=O)O)c2)C(N)=O)C(=O)CCSCc2ccc(cc2)C(=O)N[C@@H](CCCCN)CN(C(=O)CCc2ccccc2)CC(=O)N[C@@H](CC(C)C)CN(C(=O)CCC2CCCCC2)CC(=O)N[C@@H](Cc2ccccc2)CN(C(=O)Cc2ccc3ccccc3c2)CC(=O)N1
